The test system of the assay is Human immunodeficiency virus 1. Nature of the assay: Antiviral activity against HIV-1 infected in HEK293 cells preincubated for 4 hrs with cell followed by viral infection measured after 24 hrs by luciferase reporter gene assay. In kind it is functional, organism-based. The settings on record: Human immunodeficiency virus 1, HEK293. In general terms: Reporter assays use an easily measured gene product as a stand-in for the process of interest.

Take `O=C(O)C(=O)CC(=O)c1cc(OCc2ccccc2)cc(OCc2ccccc2)c1`: the IC50 (commonly the point on the concentration scale where inhibition reaches its midpoint) came out at 0.48 µM.
